Source: ChEMBL document CHEMBL1152560, “Substituted 2-arylbenzothiazoles as kinase inhibitors: hit-to-lead optimization” (Bioorg Med Chem, 2009)

Assays:
[1] = target: Protein kinase C beta type (Homo sapiens) (UniProt P05771); experiment: Residual activity of PKCbeta2 at 1 uM by microplate scintillation counting
[2] = target: Ribosomal protein S6 kinase alpha-4 (Homo sapiens) (UniProt O75676); experiment: Residual activity of RPS6KA4 at 0.1 uM by microplate scintillation counting
[3] = target: Glycogen synthase kinase-3 alpha (Homo sapiens) (UniProt P49840); experiment: Residual activity of GSK3alpha at 10 uM by microplate scintillation counting
Glycogen synthase kinase-3 alpha (Homo sapiens), sequence (P49840 2-483 limits assumed): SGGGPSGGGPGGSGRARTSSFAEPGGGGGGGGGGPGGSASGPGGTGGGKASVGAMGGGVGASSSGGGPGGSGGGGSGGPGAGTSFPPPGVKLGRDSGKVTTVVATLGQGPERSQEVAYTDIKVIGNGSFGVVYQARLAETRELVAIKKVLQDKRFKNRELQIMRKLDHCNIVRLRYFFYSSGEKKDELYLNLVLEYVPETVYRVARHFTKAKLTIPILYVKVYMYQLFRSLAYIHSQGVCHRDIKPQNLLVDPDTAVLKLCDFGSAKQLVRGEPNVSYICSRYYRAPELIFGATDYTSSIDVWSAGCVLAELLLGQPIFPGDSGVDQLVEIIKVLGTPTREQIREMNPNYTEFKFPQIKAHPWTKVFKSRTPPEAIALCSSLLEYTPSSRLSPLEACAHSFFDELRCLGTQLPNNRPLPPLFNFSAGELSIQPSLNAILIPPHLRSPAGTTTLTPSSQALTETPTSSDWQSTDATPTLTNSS

[4] = target: Ephrin type-A receptor 2 (Homo sapiens) (UniProt P29317); experiment: Residual activity of EPHA2 at 0.1 uM by microplate scintillation counting
Ephrin type-A receptor 2 (Homo sapiens), sequence (P29317 whole entry): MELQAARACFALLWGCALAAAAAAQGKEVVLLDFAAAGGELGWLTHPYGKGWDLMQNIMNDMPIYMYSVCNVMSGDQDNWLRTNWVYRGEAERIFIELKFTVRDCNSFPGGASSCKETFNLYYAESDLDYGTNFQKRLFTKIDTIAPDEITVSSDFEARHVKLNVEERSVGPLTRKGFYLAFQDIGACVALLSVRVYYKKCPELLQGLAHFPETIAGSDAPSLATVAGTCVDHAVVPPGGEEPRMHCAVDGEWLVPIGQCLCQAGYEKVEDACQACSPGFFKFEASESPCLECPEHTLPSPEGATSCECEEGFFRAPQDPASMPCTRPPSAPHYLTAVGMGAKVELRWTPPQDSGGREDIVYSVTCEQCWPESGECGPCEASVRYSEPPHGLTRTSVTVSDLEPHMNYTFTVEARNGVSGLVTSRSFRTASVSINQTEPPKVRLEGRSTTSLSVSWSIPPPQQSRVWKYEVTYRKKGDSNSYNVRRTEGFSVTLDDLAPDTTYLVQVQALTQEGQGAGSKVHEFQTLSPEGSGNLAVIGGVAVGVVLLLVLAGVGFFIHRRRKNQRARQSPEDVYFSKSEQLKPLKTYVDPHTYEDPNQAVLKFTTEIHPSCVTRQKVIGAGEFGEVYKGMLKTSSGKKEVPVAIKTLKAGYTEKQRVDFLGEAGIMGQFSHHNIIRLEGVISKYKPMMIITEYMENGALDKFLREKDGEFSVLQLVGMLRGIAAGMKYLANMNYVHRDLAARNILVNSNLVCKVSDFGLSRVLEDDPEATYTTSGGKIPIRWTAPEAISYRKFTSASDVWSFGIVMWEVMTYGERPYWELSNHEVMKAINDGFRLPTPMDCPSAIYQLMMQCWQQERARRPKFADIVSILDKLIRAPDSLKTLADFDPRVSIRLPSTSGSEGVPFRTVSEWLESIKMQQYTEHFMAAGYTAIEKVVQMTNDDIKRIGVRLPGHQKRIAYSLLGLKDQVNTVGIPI

[5] = target: T1, Inhibitor of nuclear factor kappa-B kinase subunit epsilon (Homo sapiens) (UniProt Q14164); experiment: Residual activity of IKKepsilon at 0.1 uM by microplate scintillation counting
T1 sequence (whole entry): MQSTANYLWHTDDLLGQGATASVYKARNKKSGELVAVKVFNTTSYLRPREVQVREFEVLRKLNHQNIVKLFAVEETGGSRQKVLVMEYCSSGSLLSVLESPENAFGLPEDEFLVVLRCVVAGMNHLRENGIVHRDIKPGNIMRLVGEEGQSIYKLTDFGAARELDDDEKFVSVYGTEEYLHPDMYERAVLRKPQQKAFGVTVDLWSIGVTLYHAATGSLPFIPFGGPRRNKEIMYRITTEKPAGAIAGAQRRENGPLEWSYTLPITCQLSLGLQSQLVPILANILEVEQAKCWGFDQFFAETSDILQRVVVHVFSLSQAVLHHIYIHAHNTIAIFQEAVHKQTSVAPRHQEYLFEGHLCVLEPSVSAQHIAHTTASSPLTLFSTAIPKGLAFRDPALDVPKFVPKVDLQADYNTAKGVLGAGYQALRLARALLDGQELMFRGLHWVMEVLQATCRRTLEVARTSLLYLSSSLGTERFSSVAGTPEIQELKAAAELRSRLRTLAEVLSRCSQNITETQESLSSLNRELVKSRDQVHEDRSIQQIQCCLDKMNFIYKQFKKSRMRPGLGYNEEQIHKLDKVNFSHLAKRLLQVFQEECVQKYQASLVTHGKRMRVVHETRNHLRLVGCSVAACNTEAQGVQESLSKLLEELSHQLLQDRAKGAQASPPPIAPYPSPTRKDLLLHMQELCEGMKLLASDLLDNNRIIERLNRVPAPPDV

[6] = target: Activin receptor type-1-like (Homo sapiens) (UniProt P37023); experiment: Residual activity of ACV-RL1 at 10 uM by microplate scintillation counting
Activin receptor type-1-like (Homo sapiens), sequence (P37023 whole entry): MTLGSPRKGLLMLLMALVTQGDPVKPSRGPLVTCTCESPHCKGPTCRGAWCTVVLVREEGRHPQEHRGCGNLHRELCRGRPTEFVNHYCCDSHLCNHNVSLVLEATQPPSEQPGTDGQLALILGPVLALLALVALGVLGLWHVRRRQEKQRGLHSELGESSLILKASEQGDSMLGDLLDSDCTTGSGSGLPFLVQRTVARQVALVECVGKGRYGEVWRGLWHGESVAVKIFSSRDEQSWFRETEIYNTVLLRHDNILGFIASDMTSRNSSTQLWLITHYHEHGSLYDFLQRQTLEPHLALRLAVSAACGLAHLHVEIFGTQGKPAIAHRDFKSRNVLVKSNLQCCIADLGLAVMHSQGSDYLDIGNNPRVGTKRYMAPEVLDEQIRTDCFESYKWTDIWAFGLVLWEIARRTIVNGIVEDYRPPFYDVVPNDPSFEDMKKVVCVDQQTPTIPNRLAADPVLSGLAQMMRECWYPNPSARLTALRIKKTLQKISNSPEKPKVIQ

[7] = target: T2, NUAK family SNF1-like kinase 2 (Homo sapiens) (UniProt Q9H093); experiment: Residual activity of SNARK at 10 uM by microplate scintillation counting
T2 sequence (whole entry): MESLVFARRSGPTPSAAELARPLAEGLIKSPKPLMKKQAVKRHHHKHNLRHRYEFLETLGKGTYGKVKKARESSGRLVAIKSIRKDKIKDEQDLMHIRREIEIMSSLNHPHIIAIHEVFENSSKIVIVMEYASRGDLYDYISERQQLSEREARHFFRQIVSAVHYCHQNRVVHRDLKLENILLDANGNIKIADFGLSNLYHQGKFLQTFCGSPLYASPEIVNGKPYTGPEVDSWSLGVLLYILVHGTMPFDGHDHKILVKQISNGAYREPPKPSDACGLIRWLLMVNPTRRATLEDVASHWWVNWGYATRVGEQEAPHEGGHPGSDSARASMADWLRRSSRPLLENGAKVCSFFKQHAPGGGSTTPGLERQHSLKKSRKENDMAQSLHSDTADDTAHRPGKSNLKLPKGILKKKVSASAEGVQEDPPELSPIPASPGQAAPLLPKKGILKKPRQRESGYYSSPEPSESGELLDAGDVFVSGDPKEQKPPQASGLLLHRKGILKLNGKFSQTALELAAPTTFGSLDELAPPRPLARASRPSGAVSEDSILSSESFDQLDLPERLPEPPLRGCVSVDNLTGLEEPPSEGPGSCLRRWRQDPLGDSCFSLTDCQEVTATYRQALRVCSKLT

[8] = target: Misshapen-like kinase 1 (Homo sapiens) (UniProt Q8N4C8); experiment: Residual activity of MINK1 at 10 uM by microplate scintillation counting
Misshapen-like kinase 1 (Homo sapiens), sequence (Q8N4C8 whole entry, looked up): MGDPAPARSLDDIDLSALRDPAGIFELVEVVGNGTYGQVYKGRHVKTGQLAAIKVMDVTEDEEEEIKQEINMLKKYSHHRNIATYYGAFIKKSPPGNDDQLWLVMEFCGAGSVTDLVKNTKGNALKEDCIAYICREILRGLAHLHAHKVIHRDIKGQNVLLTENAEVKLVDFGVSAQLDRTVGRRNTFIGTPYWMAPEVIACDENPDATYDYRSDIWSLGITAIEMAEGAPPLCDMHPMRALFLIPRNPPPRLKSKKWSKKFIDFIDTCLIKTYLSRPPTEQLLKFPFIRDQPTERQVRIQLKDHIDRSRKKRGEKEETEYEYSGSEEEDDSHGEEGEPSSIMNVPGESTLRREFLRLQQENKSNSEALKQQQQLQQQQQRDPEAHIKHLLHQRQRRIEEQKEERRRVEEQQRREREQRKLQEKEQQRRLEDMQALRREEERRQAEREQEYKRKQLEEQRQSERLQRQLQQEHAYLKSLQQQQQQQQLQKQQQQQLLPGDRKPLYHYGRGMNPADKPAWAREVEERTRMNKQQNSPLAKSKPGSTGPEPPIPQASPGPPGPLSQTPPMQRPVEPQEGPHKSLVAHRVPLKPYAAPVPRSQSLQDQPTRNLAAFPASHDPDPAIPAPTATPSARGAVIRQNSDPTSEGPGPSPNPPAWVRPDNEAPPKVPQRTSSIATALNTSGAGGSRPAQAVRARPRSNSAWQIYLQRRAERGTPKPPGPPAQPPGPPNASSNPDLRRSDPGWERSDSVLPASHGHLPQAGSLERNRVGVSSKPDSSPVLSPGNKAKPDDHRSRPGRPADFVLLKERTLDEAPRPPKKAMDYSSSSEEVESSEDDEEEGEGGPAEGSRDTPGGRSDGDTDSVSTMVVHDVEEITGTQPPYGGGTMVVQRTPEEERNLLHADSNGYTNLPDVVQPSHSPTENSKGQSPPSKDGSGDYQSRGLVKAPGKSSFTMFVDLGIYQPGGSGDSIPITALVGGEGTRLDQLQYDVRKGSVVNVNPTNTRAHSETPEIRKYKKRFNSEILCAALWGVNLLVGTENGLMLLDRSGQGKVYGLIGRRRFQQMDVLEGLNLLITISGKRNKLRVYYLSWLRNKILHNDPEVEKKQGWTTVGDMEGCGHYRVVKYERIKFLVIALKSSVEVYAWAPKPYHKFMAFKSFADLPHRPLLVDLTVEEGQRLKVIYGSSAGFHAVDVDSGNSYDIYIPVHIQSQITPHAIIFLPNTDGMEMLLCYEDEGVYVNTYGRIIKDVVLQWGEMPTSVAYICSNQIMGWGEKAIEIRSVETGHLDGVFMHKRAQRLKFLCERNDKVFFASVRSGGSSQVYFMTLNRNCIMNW

[9] = target: T3, Serine/threonine-protein kinase 17A (Homo sapiens) (UniProt Q9UEE5); experiment: Residual activity of STK17A at 0.1 uM by microplate scintillation counting
T3 sequence (whole entry): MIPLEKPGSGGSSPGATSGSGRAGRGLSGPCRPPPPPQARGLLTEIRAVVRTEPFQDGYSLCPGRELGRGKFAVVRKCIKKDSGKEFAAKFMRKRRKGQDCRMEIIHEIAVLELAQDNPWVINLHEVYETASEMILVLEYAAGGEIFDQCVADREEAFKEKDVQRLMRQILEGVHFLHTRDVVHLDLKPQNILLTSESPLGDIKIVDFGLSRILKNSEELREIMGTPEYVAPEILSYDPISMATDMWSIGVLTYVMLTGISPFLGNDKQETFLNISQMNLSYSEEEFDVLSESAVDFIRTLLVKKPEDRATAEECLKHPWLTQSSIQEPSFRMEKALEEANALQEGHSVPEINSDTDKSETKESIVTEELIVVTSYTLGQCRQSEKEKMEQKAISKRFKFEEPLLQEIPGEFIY

[10] = target: Protein kinase C delta type (Homo sapiens) (UniProt Q05655); experiment: Residual activity of PKCdelta at 1 uM by microplate scintillation counting
Protein kinase C delta type (Homo sapiens), sequence (Q05655 whole entry, looked up): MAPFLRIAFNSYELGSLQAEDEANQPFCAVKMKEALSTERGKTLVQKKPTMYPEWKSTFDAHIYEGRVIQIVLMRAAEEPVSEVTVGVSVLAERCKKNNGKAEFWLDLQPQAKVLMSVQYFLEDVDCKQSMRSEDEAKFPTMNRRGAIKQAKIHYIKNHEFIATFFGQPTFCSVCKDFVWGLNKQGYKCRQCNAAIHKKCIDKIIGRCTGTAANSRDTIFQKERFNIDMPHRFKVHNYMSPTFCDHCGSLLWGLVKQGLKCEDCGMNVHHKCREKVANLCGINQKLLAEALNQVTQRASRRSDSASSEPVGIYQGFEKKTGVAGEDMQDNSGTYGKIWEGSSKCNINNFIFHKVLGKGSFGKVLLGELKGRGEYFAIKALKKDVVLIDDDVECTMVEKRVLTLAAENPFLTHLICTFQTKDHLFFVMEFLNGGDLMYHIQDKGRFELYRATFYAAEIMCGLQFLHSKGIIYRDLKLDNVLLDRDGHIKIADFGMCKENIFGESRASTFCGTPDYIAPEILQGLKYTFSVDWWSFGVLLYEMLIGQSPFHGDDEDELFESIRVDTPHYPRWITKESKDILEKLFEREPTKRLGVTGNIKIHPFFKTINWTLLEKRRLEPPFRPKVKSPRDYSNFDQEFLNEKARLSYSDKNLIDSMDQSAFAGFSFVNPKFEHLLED

[11] = tested on: Mast/stem cell growth factor receptor Kit (Homo sapiens), P10721 [T670I]; experiment: Residual activity of KIT T670I mutant at 10 uM by microplate scintillation counting
[12] = target: Myosin light chain kinase 2, skeletal/cardiac muscle (Homo sapiens) (UniProt Q9H1R3); experiment: Residual activity of MYLK2 at 1 uM by microplate scintillation counting

Ribosomal protein S6 kinase alpha-4 (Homo sapiens), sequence (O75676 whole entry, looked up): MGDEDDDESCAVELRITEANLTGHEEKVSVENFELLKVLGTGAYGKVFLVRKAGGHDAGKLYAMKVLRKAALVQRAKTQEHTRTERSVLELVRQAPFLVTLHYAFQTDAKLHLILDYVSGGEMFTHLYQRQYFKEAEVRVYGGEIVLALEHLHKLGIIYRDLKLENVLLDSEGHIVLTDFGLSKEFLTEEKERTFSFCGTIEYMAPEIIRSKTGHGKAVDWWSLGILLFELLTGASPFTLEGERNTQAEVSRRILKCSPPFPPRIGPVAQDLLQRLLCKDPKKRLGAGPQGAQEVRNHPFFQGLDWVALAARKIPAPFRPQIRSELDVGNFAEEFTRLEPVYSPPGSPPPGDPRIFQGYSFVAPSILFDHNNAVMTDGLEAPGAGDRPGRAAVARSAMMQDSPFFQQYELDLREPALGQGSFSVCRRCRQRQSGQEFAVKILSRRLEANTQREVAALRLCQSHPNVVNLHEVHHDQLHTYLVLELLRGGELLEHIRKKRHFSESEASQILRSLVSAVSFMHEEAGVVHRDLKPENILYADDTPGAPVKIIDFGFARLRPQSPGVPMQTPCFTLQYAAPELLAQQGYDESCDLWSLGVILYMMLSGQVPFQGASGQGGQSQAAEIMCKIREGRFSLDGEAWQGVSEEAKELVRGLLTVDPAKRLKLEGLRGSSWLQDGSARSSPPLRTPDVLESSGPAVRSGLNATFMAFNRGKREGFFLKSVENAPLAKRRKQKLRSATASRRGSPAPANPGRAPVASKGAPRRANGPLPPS

| residual activity [1] | residual activity [2] | residual activity [3] | residual activity [4] | residual activity [5] | residual activity [6] | residual activity [7] | residual activity [8] | residual activity [9] | residual activity [10] | residual activity [11] | residual activity [12] | Compound |
| --- | --- | --- | --- | --- | --- | --- | --- | --- | --- | --- | --- | --- |
| 111% | 88% | 62% | 76% | 92% | 87% | 82% | 36% | 66% | 93% | 52% | 140% | COc1cc2c(Oc3ccc(-c4nc5ccccc5s4)cc3)ncnc2cc1OCCCN1CCCC1 |
| 104% | 91% | 28% | 99% | 91% | 84% | 92% | 21% | 66% | 103% | 40% | 81% | COc1cc2c(Oc3ccc(-c4nc5ccccc5s4)cc3)ncnc2cc1OCCCN1CCN(C)CC1 |
| 132% | 93% | 27% | 94% | 87% | 91% | 62% | 20% | 87% | 94% | 18% | 99% | COc1cc2c(Oc3ccc(-c4nc5ccccc5s4)cc3F)ncnc2cc1OCCCN1CCN(C)CC1 |
